Test results from publication PMC6009898 (Journal of Enzyme Inhibition and Medicinal Chemistry, 2017).
Values joined by “and” are separate entries in the source; they are usually repeats but may differ in a detail not shown here. Identical values can stand only once.

What was measured:
EeAChE = EeAChE (Electrophorus electricus, UniProt O42275); experiment: Kinetic analysis of AChE inhibition (Lineweaver–Burk plots); details: 5l at 30.0, 15.0 and 7.5 nM
Aβ (1–42) [1] = target: T1, Aβ (1–42) (Homo sapiens, UniProt P05067); experiment: Inhibition of Cu^2+-induced Aβ (1–42) aggregation (ThT assay); assay type: biochemical; details: read-out: Inhibition of Cu^2+-induced Aβ aggregation
Protocol: The mixture of the peptide (10 μL, 25 μM, final concentration) with or without copper (10 μL, 25 μM, final concentration) and the test compound (10 μL, 50 μM, final concentration) were incubated at 37 °C for 24 h. The 20 μL of the sample was diluted to a final volume of 200 μL with […] glycine–NaOH buffer (pH 8.0) containing ThT (5 μM). The detection method was the same as that of self-induced Aβ aggregation experiment.

PC12 cells [2] = experiment: Cytotoxicity in PC12 cells (MTT assay); assay type: cell-based; details: 3–50 μM, 24 h
Protocol: The toxicity effect of the tested compounds on the rat pheochromocytoma (PC12) cells was examined according to previously reported methods. PC 12 cells was obtained from the Cell Bank of the Chinese Academy of Sciences (Shanghai, China) and routinely grown at 37 °C in a humidified incubator with 5% CO2 in Dulbecco’s modified Eagle’s medium (DMEM) supplemented with 10% bovine calf serum, 100 units per mL penicillin, and 100 units per mL of streptomycin. Cells were sub-cultured in 96-well plates at a seeding density of 5000 cells per well and allowed to adhere and grow. When cells reached the required confluence, they were placed into serum-free medium and treated with compound 5l. Twenty-four hours later the survival of cells was determined by MTT assay. Briefly, after incubation with 20 μL of MTT at 37 °C for 4 h, living cells containing MTT formazan crystals were solubilized in 200 μL DMSO. The absorbance of each well was measured using a microculture plate reader with a test wavelength of 570 nm and a reference wavelength of 630 nm. Results are expressed as the mean ± SD of three independent experiments.

in vitro = experiment: in vitro; parameters: Papp at 16 h: dose or concentration left out as unconfirmed; details: for Papp at 16 h: PAMPA
Protocol: Commercial drugs were purchased from Sigma (St. Louis, MO) and Alfa Aesar (Haverhill, MA). The porcine brain lipid (PBL) was obtained from Avanti Polar Lipids (Alabaster, AL). The donor microplate (PVDF membrane, pore size […]) and the acceptor microplate were both from Millipore (Darmstadt, Germany). The 96-well UV plate (COSTAR^@) was from Corning Incorporated (Harrodsburg, KY). The acceptor 96-well microplate was filled with 300 μL of PBS/EtOH (7:3), and the filter membrane was impregnated with 4 μL of PBL in dodecane (20 mg/mL). […] The […] was carefully placed on the donor plate to form a sandwich, which was left undisturbed for 16 h at 25 °C. After incubation, the donor plate was carefully removed and the concentration of compound in the acceptor wells was determined using an UV plate reader (Flexstation^@ 3). Every sample was analyzed at five wavelengths, in four wells, in at least three independent runs, and the results are given as the mean ± SD. In each experiment, nine quality control standards of known BBB permeability were included to validate the analysis set.

PC12 cells [3] = experiment: Neuroprotection against Aβ (1–42)-induced toxicity in PC12 cells (MTT assay); assay type: cell-based; details: Rattus norvegicus, PC-12, Aβ (1–42) 25 μM, 24 h, Aβ alone 44.2%, read-out: Cell viability (% of control) with Aβ (1–42)
Protocol: PC 12 cells were grown in RPMI-1640 medium containing 10% (v/v) foetal bovine serum, 100 U penicillin/mL and […] streptomycin/mL under 5% CO2 at 37 °C. The culture media were changed every other day. After pretreatment with different concentrations of test compound (0, 6, 12.5, 25, 50 μM) for 2 h, PC 12 cells were incubated with 25 μM of Aβ (1–42) for 24 h. The cell viability was evaluated using MTT assay. Briefly, the cells were treated with 10 μL MTT (5 mg/mL in PBS) for 4 h at 37 °C. Then, 200 μL of DMSO was added to dissolve the dark blue formazan crystals formed in intact cells, and the absorbance at 570 nm was detected by a microplate reader. PC12 cells were cultured without test compound or Aβ (1–42) as control group and the results were expressed by percentage of control.

[4] = target: T2, BuChE (from equine serum) (Equus caballus, UniProt P81908); experiment: biochemical; assay type: biochemical; details: IC50 eqBuChE, means ± SD of three experiments
T2 construct: butyrylcholinesterase (BuChE, E.C. 3.1.1.8) from equine serum and human serum; purchased Sigma-Aldrich (St. Louis, MO); host or cells: equine serum

human AChE = target: T3, human AChE (Homo sapiens, UniProt P22303); experiment: biochemical; details: means ± SD of three experiments; read-out: IC50 hAChE
T3 construct: Acetylcholinesterase (E.C. 3.1.1.7) from electric eel and human erythrocytes; purchased Sigma-Aldrich (St. Louis, MO); host or cells: human erythrocytes

brain AChE = brain AChE (Mus musculus, UniProt P21836); details: mice, 10 μmol/kg i.p., sacrificed 10 min after administration
AChE (from electric eel) = target: T4, AChE (from electric eel) (Electrophorus electricus, UniProt O42275); experiment: biochemical; details: means ± SD of three experiments; read-out: IC50 eeAChE
T4 construct: Acetylcholinesterase (E.C. 3.1.1.7) from electric eel and human erythrocytes; purchased Sigma-Aldrich (St. Louis, MO); host or cells: electric eel (natural source)

Aβ (1–42) [5] = target: T1, Aβ (1–42); experiment: Inhibition of Aβ (1–42) self-induced aggregation (Thioflavin T assay); details: read-out: Aβ (1–42) aggregation inhibition (%)
[6] = PAMPA-BBB literature value; cited from earlier work

T2 sequence (P81908 whole entry): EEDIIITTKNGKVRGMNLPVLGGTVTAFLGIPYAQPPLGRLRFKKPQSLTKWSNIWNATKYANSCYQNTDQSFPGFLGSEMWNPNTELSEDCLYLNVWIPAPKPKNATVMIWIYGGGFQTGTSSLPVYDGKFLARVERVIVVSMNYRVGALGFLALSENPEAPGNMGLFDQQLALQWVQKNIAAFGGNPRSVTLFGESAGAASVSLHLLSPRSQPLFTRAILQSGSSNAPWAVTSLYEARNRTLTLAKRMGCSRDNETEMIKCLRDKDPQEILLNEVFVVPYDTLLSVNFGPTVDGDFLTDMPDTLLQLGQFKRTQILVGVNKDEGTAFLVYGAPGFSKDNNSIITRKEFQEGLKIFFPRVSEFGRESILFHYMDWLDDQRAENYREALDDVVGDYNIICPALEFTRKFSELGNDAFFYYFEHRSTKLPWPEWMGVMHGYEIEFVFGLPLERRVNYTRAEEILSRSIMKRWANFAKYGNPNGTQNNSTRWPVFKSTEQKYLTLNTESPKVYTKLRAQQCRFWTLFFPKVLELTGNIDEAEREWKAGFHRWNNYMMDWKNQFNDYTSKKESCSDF
T1 sequence (P05067 672-713): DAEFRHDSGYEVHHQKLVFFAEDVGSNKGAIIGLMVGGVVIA
EeAChE, sequence (O42275 24-633): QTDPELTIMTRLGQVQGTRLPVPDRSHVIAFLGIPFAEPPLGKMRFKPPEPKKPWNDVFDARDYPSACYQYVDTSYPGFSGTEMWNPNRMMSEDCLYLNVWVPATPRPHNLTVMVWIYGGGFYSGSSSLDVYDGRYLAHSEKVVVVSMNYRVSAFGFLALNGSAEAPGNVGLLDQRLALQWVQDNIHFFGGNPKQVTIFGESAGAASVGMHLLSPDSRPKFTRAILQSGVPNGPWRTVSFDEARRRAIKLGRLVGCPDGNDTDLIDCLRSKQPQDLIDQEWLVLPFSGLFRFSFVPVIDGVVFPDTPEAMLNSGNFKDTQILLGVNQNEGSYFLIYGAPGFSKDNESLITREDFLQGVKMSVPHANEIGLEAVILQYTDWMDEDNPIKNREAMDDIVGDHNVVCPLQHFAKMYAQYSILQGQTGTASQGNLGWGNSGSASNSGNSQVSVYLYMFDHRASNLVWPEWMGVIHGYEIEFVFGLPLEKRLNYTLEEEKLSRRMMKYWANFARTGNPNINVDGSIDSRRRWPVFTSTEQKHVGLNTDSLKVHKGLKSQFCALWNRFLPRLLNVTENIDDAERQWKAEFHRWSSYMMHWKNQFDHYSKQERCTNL
T4 sequence (O42275 24-633): as above
T3 sequence (P22303 other isoform, or with tags, fused parts or gaps): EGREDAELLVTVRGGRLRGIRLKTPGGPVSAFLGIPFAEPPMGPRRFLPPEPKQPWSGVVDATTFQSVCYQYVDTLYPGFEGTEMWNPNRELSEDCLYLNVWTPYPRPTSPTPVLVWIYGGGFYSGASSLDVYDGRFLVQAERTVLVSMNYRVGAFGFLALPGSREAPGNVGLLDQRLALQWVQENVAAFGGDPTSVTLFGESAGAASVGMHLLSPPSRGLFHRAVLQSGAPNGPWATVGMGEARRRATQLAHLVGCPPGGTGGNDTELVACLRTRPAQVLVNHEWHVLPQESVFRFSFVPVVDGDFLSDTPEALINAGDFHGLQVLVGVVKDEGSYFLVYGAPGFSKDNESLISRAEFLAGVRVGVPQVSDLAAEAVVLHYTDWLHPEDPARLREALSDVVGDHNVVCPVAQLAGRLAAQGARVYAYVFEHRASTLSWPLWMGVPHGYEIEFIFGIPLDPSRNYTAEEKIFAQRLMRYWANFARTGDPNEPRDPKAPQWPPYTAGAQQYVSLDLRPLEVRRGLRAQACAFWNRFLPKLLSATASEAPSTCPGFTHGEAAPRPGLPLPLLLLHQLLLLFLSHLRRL
brain AChE, sequence (P21836 32-614): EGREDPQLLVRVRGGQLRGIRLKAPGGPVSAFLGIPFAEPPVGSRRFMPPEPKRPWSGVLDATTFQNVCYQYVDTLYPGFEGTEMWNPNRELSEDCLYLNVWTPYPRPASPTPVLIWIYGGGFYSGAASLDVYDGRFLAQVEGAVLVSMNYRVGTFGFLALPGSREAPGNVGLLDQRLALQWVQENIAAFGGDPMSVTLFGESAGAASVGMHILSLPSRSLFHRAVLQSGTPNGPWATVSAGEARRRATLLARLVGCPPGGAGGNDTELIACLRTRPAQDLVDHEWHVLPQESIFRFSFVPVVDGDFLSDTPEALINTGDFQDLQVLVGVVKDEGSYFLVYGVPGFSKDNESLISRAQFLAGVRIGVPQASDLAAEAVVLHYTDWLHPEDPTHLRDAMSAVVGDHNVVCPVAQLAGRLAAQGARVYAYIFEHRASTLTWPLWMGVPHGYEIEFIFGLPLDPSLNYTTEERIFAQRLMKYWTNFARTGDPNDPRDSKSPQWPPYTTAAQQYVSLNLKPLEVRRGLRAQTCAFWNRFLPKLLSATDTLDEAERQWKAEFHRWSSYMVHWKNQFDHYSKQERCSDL

COc1ccc(/C=C/C(=O)Nc2cc[n+](Cc3ccc(F)cc3)cc2)cc1OC.[Br-] [Compound 5l, (E)-4-(3-(3,4-dimethoxyphenyl)acrylamido)-1-(4-fluorobenzyl) pyridin-1-ium bromide]
Type of AChE inhibition (EeAChE): mixed-type inhibitor | inhibition at 50 µM (Aβ (1–42) [1]): 68.6% | Effect on cell viability (toxicity) (PC12 cells [2]): did not significantly affect cell viability | Papp at 16 h (in vitro): 2.89 ± 0.37 ×10⁻⁶ cm/s | BBB permeation prediction class (in vitro; PAMPA-BBB): CNS+ | viability at 6 µM (PC12 cells [3]; 6 μM compound): 47.6 ± 4.2% | viability at 12.5 µM (PC12 cells [3]; 12.5 μM compound): 57.5 ± 1.4% | viability at 25 µM (PC12 cells [3]; 25 μM compound): 63.2 ± 3.5% | viability at 50 µM (PC12 cells [3]; 50 μM compound): 66.6 ± 2.5% | IC50 [4]: 2.5 µM and 2.6 µM | ABTS assay (trolox equiv): N (N means <0.05) | IC50 (human AChE): 0.0086 ± 0.0009 µM | Inhibition (%) of brain AChE activity versus untreated controls (brain AChE): 53.9 ± 2.9% | IC50 (AChE (from electric eel)): 0.0121 ± 0.0018 µM | inhibition at 20 µM (Aβ (1–42) [5]): 64.7 ± 1.6%

NCCc1ccc(O)c(O)c1 [Dopamine, reference compound]
Permeability Pe, Bibl [6]: 0.2 ×10⁻⁶ cm/s | Papp at 16 h (in vitro): 0.17 ×10⁻⁶ cm/s
